Results as given in patent publication US20170188607A1, “SOLUBILIZATION OF A SWEET MODULATOR AND FLAVOR” (Firmenich SA, priority 2014, published 2017).

Test: Amount of compound remaining in solution in acidic syrup kept at 3° C., measured by UV spectroscopy as a function of time
Assay type: physicochemical
Description: A concentrated solution 1 of (S)-1-(3-(((4-amino-2,2-dioxido-1H-benzo[c][1,2,6]thiadiazin-5-yl)oxy)methyl)piperidin-1-yl)-3-methylbutan-1-one at 0.3% (w/w) (3000 ppm) was prepared in water. pH was adjusted to 11 using NaOH to form (S)-1-(3-(((4-amino-2,2-dioxido-1H-benzo[c][1,2,6]thiadiazin-5-yl)oxy)methyl)piperidin-1-yl)-3-methylbutan-1-one sodium salt and obtain an homogeneous solution. Next, a syrup was prepared by mixing an aqueous solution of High Fructose Corn Syrup (HFCS), citric acid and deionized water. The final syrup contained 34% fructose, 0.68% citric acid, 0.1% sodium citrate and 65.22% water, with a pH of 2. […] The sample was kept at 3° C. and the amount of (S)-1-(3-(((4-amino-2,2-dioxido-1H-benzo[c][1,2,6]thiadiazin-5-yl)oxy)methyl)piperidin-1-yl)-3-methylbutan-1-one was measured by UV spectroscopy as a function of time. The amount of (S)-1-(3-(((4-amino-2,2-dioxido-1H-benzo[c][1,2,6]thiadiazin-5-yl)oxy)methyl)piperidin-1-yl)-3-methylbutan-1-one was reduced to 28 ppm after 1 week and first crystals were visually observed. After 12 weeks 1.7 ppm of (S)-1-(3-(((4-amino-2,2-dioxido-1H-benzo[c][1,2,6]thiadiazin-5-yl)oxy)methyl)piperidin-1-yl)-3-methylbutan-1-one remained in solution.
(§1) A concentrated solution 1 of (S)-1-(3-(((4-amino-2,2-dioxido-1H-benzo[c][1,2,6]thiadiazin-5-yl)oxy)methyl)piperidin-1-yl)-3-methylbutan-1-one at 0.3% (w/w) (3000 ppm) was prepared in water. pH was adjusted to 11 using NaOH to form (S)-1-(3-(((4-amino-2,2-dioxido-1H-benzo[c][1,2,6]thiadiazin-5-yl)oxy)methyl)piperidin-1-yl)-3-methylbutan-1-one sodium salt and obtain an homogeneous solution. Next, a syrup was prepared by mixing an aqueous solution of HFCS, citric acid, PVP 55k and deionized water. The final syrup contained 34% fructose, 0.68% citric acid, 0.1% sodium citrate, 0.03% PVP and 65.19% water. […] The sample was kept at 3° C. and the amount of (S)-1-(3-(((4-amino-2,2-dioxido-1H-benzo[c][1,2,6]thiadiazin-5-yl)oxy)methyl)piperidin-1-yl)-3-methylbutan-1-one was measured by UV spectroscopy as a function of time. The amount of (S)-1-(3-(((4-amino-2,2-dioxido-1H-benzo[c][1,2,6]thiadiazin-5-yl)oxy)methyl)piperidin-1-yl)-3-methylbutan-1-one was maintained at 30 ppm for 4 weeks, before a slight decrease and appearance of few crystals. After 12 weeks 9.6 ppm of (S)-1-(3-(((4-amino-2,2-dioxido-1H-benzo[c][1,2,6]thiadiazin-5-yl)oxy)methyl)piperidin-1-yl)-3-methylbutan-1-one remained in solution.
as §1, with “PVP 55k, maltodextrin (18DE)” for “PVP 55k”, “fructose, 15% maltodextrin,” for “fructose,”, “for 8” for “for 4”, “crystals.” for “crystals. After 12 weeks 9.6 ppm of (S)-1-(3-(((4-amino-2,2-dioxido-1H-benzo[c][1,2,6]thiadiazin-5-yl)oxy)methyl)piperidin-1-yl)-3-methylbutan-1-one remained in solution.”
A concentrated solution 1 of (S)-1-(3-(((4-amino-2,2-dioxido-1H-benzo[c][1,2,6]thiadiazin-5-yl)oxy)methyl)piperidin-1-yl)-3-methylbutan-1-one at 0.3% (w/w) (3000 ppm) was prepared in water. pH was adjusted to 11 using NaOH to form (S)-1-(3-(((4-amino-2,2-dioxido-1H-benzo[c][1,2,6]thiadiazin-5-yl)oxy)methyl)piperidin-1-yl)-3-methylbutan-1-one sodium salt and obtain an homogeneous solution. […]

CC(C)CC(=O)N1CCC[C@H](COc2cccc3c2C(N)=NS(=O)(=O)N3)C1 [(S)-1-(3-(((4-amino-2,2-dioxido-1H-benzo[c][1,2,6]thiadiazin-5-yl)oxy)methyl)piperidin-1-yl)-3-methylbutan-1-one]
amount remaining in solution (Example 1 (comparative): 30 ppm start, syrup 34 Brix (34% fructose, 0.68% citric acid, 0.1% sodium citrate), pH 2, no polymer, 3° C., after 1 week, first crystals visually observed): 28 ppm
amount remaining in solution (Example 1 (comparative): 30 ppm start, syrup 34 Brix, pH 2, no polymer, 3° C., after 12 weeks): 1.7 ppm
amount remaining in solution (Example 2: 30 ppm start, syrup 34 Brix with 0.03% PVP 55k, 3° C., after 12 weeks): 9.6 ppm
amount maintained in solution (Example 2: 30 ppm start, syrup 34 Brix with 0.03% PVP 55k, 3° C., maintained for 4 weeks, then slight decrease and few crystals): 30 ppm
amount remaining in solution (Example 3: 30 ppm start, syrup 34 Brix with 0.03% PVP 55k and 15% maltodextrin (18DE), 3° C., after 12 weeks): 27.3 ppm
amount maintained in solution (Example 3: 30 ppm start, syrup 34 Brix with 0.03% PVP 55k and 15% maltodextrin (18DE), 3° C., maintained for 8 weeks, then slight decrease and few crystals): 30 ppm
amount maintained in solution (Example 4: 30 ppm start, syrup 34 Brix with 0.03% HPMC (22 kDa), 3° C., maintained for 12 weeks): 30 ppm
amount remaining in solution (Example 10 (comparative): 18 ppm start, syrup 45 Brix, pH 2, no polymer, 3° C., after 7 weeks, first crystals visually observed): 15.8 ppm
amount remaining in solution (Example 10 (comparative): 18 ppm start, syrup 45 Brix, pH 2, no polymer, 3° C., after 14 weeks): 3.6 ppm
amount maintained in solution (Example 11: 18 ppm start, syrup 45 Brix with 0.0009% HPMC (Methocel K99), pH 2, 3° C., maintained for 17 weeks): 18 ppm
amount maintained in solution (Example 12: 18 ppm start, syrup 45 Brix with 0.0009% CMC, pH 2, 3° C., maintained for 16 weeks): 18 ppm
amount remaining in solution (Example 13 (comparative): 18 ppm start, syrup 20 Brix, pH 2, no polymer, 3° C., after 3.5 weeks, crystals visually observed): 14 ppm
amount remaining in solution (Example 13 (comparative): 18 ppm start, syrup 20 Brix, pH 2, no polymer, 3° C., after 18 weeks): 4 ppm
amount maintained in solution (Example 14: 18 ppm start, syrup 20 Brix with 0.0009% HPMC (Methocel K99), pH 2, 3° C., maintained for 18 weeks): 18 ppm
